Results: patent EP1192125B9, “MONO-SUBSTITUTED 3-PROPYL GAMMA-AM[…]” (Warner-Lambert Company LLC, priority 1999, dated 2000)
Read-outs that look alike come from different tables or passages of the source.

How the values were obtained:
Assay type in all cases: in vivo
DBA/2 mice = experiment: DBA2 mouse model of anticonvulsant efficacy (sound-induced seizures); parameters: Anticonvulsant % Protect 2 br / Anticonvulsant % Protect 1hr: concentration or dose not given beside the values; conditions: for Anticonvulsant % Protect 2 br / Anticonvulsant % Protect 1hr: Table 1; for responders at 30 mg/kg: Mus musculus
[1] = Anxiolytic activity relative to pregabalin (test model not specified); conditions: 30 mg/kg PO; percent of pregabalin activity
Male Sprague-Dawley rats = experiment: Carrageenin-induced hyperalgesia, rat paw pressure test; conditions: dosed orally at 30 mg/kg
Protocol: Male Sprague-Dawley rats (70-90 g) were trained on this apparatus before the test day. Pressure was gradually applied to the hind paw of each rat and nociceptive thresholds were determined as the pressure (g) required to elicit paw withdrawal. […] On the test day, two to three baseline measurements were taken before animals were administered 100 µL of 2% carrageenin by intraplantar injection into the right hind paw.

[2] = 30 mg/kg PO, 1h, read-out: Anticonvulsant % Protect* 1h
[3] = 30 mg/kg PO, 2h, read-out: Anticonvulsant % Protect* 2h

Compound | responders at 30 mg/kg (DBA/2 mice; [2]) [%] | responders at 30 mg/kg (DBA/2 mice; [3]) [%] | Anxiolytic Activity* % Preg. Act. [1] [%] | further results
CC[C@@H](C)[C@H](CN)CC(=O)O |  |  |  | Anticonvulsant % Protect 2 br (DBA/2 mice): 0%; Anticonvulsant % Protect 1hr (DBA/2 mice): 0%
CC(C)[C@@H](C)C(CN)CC(=O)O (stereo partly drawn) |  |  |  | Anticonvulsant % Protect 2 br (DBA/2 mice): 100%; Anticonvulsant % Protect 1hr (DBA/2 mice): 80%
CCC(CC)C(CN)CC(=O)O (stereo not drawn) |  |  |  | Anticonvulsant % Protect 2 br (DBA/2 mice): 20%; Anticonvulsant % Protect 1hr (DBA/2 mice): 0%
CCC(CC)CC(CN)CC(=O)O (stereo not drawn) |  |  |  | Anticonvulsant % Protect 2 br (DBA/2 mice): 20%; Anticonvulsant % Protect 1hr (DBA/2 mice): 0%
CCC(C)CC(CN)CC(=O)O (stereo not drawn) |  |  |  | Anticonvulsant % Protect 2 br (DBA/2 mice): 100%; Anticonvulsant % Protect 1hr (DBA/2 mice): 60%
CCC(C)CC(CN)CC(=O)O (racemic) [3-Aminomethyl-5-methylheptanoic acid] | 60 | 100 | 79 | 
CC(C)C(c1ccccc1)C(CN)CC(=O)O (stereo not drawn) [3-Aminomethyl-5-methyl-4-phenyl-hexanoic acid] | 0 | 0 |  | 
CC(Cc1ccccc1)CC(CN)CC(=O)O (stereo not drawn) [3-Aminomethyl-5-methyl-6-phenyl-hexanoic acid] | 0 | 0 |  | 
C=CCC(C)CC(CN)CC(=O)O (stereo not drawn) [3-Aminomethyl-5-methyl-oct-7-enoic acid] | 0 | 0 |  | 
CCCCCC(C)CC(CN)CC(=O)O (stereo not drawn) [3-Aminomethyl-5-methyldecanoic acid, 3-Aminomethyl-5-methyl-decanoic acid] | 0 | 0 |  | 
CCCCC(C)CC(CN)CC(=O)O (stereo not drawn) [3-Aminomethyl-5-methylnonanoic acid, 3-Aminomethyl-5-methyl-nonanoic acid] | 40 | 80 |  | 
CCCC(C)CC(CN)CC(=O)O (stereo not drawn) [3-Aminomethyl-5-methyloctanoic acid, 3-Aminomethyl-5-methyl-octanoic acid] | 40 | 100 |  | 
CC(CC(CN)CC(=O)O)C(F)(F)F (stereo not drawn) [3-Aminomethyl-6,6,6-trifluoro-5-methyl-hexanoic acid] | 0 | 0 |  | 
CCC(C(C)C)C(CN)CC(=O)O (stereo not drawn) [3-aminomethyl-4-isopropyl-hexanoic acid, 3-Aminomethyl-4-isopropyl-hexanoic acid] | 0 | 0 |  | 
CCCCC(C(C)C)C(CN)CC(=O)O (stereo not drawn) [3-aminomethyl-4-isopropyl-octanoic acid, 3-Aminomethyl-4-isopropyl-octanoic acid] | 0 | 0 |  | 
CC(C)[C@@H](C)[C@H](CN)CC(=O)O [(3R,4R)-3-Aminomethyl-4,5-dimethyl-hexanoic acid] |  |  | 204 | 
CC(C)[C@H](C)[C@H](CN)CC(=O)O [(3R,4S)-3-Aminomethyl-4,5-dimethyl-hexanoic acid] |  |  | 58 | 
CC(C)[C@@H](C)[C@@H](CN)CC(=O)O [(3S,4R)3-Aminomethyl-4,5-dimethyl-hexanoic acid] |  |  | 12 | Anticonvulsant % Protect* 1h (DBA/2 mice; 30 mg/kg PO, 1h): 20%; Anticonvulsant % Protect* 2h (DBA/2 mice; 30 mg/kg PO, 2h): 20%
CCCCC[C@@H](C)C[C@H](CN)CC(=O)O [(3S,5R)-3-Aminomethyl-5-methyl-decanoic acid] | 100 | 100 | 105.59 | 
CC[C@@H](C)C[C@H](CN)CC(=O)O [(3S,5R)-3-Aminomethyl-5-methyl-heptanoic acid] |  |  |  | Anticonvulsant % Protect* 2h (DBA/2 mice; 30 mg/kg PO, 2h): 100%
CCCC[C@@H](C)C[C@H](CN)CC(=O)O.Cl [(3S,5R)-3-Aminomethyl-5-methyl-nonanoic acid hydrochloride] | 100 | 100 | 125.94 | 
CCC[C@@H](C)C[C@H](CN)CC(=O)O.Cl [(3S,5R)-3-Aminomethyl-5-methyl-octanoic acid hydrochloride] | 100 | 100 | 160 | 
CCCCC[C@H](C)C[C@H](CN)CC(=O)O [(3S,5S)-3-Aminomethyl-5-methyl-decanoic acid] | 0 | 20 |  | 
CCC[C@H](C)C[C@H](CN)CC(=O)O [(3S,5S)-3-Aminomethyl-5-methyl-octanoic acid] | 0 | 20 | 15.6 | 
CCCC[C@H](C)C[C@H](CN)CC(=O)O [(3S, 5S)-3-Aminomethyl-5-methyl-nonanoic acid] | 0 | 0 |  | 
Cl.O=C(O)[C@H]1CNCC12CCCCC2 [(R)-2-Aza-spiro[4.5]decane-4-carboxylic acid hydrochloride] |  |  |  | percent of maximum possible effect (MPE) (Male Sprague-Dawley rats; 1 hour postdose): 53%; percent of maximum possible effect (MPE) (Male Sprague-Dawley rats; 2 hours postdose): 4.6%
CCCC(C)C[C@H](CN)CC(=O)O (stereo partly drawn) [(S)-3-Aminomethyl-5-methyl-octanoic acid] | 100 | 100 | 135.38 | 
COCC(C)C[C@H](CN)CC(=O)O (stereo partly drawn) [(S)-3-Aminomethyl-6-methoxy-5-methyl-hexanoic acid] | 0 | 0 |  | 
CC(C)C[C@H](CN)CC(=O)O [Pregabalin, (S)-3-(Aminomethyl)-5-methylhexanoic acid, reference compound] |  | 100 | 100 | 
CC(C)CC(CN)CC(=O)O (stereo not drawn) [reference compound] |  |  |  | Anticonvulsant % Protect 2 br (DBA/2 mice): 100%
